Experimental data taken from patent publication US20230091336A1, “CANNABINOID COMPOSITIONS” (priority 2020, published 2023).

Experiments:
[1] = system: thapsigargin (Tg)-induced Ca^2+ entry (SOCE) in Jurkat, U937, Luva, RBL-2H3, HL-60 and HEK-293 cells; test: Thapsigargin-induced SOCE Fura-2 bioassay in various cell types (FIG. 1); type: cell-based; details: 1 μM, positive control, all tested cell types
Procedure: A Fura-2 calcium flux assay was used to determine cytoplasmic Ca^2+ levels. Briefly, cells were preloaded with Fura-2 AM, and fluorescence intensity in cells intensity was measured over time as a ratio of detected 510 nm fluorescent light emission intensity when excited by UV light at 340 nm and 380 nm wavelengths (f340/f380 ratio). Gadolinium (Gd^3+) is known to block SOCE at a concentration of 1 μM and was used at 1 μM as a positive control in these experiments (gray line).

kidney cell-line model = details: background statement; cited from earlier work
UUO mice = details: background statement; cited from earlier work

Compound | effect on Tg-induced SOCE (f340/f380 ratio) [1] | cell proliferation in a kidney cell-line model (kidney cell-line model) | progression of kidney damage and fibrosis in the UUO mouse model (UUO mice)
[Cl][Gd]([Cl])[Cl] [Gd^3+, Gadolinium Chloride] | inhibited SOCE |  | 
c1ccc2c(c1)CCC[C@H]2Nc1nc2ccccc2[nH]1 [NS8593] |  | inhibit cell proliferation | ameliorates the progression of kidney damage and fibrosis
